In patent publication US11008362B2, “Malonyl-coenzyme A mimics as fatty acid synthase inhibitors and methods of use” (priority 2018, dated 2021):

Columns and labels:
MMCD = MMCD (Escherichia coli, UniProt P52045); conditions: coupled assay, pH 7.2 and 37° C., not optimized; cited from earlier work
[1] = target: T1, Escherichia coli methylmalonyl-CoA decarboxylase (YgfG, MMCD) (Escherichia coli, UniProt P52045); assay: Inhibition assays of MMCD by 4-9 (HPLC detection, kcat/Km approximation at low substrate); format: biochemical; conditions: 200 μM methylmalonyl-CoA, 1 nM MMCD, pH 6.5, 25° C.; read-out: Ki (inhibition constant, competitive inhibition)
T1 construct: made in house; host or cells: E. coli BL21 (DE3)
Protocol: Initially we attempted to use isothermal titration calorimetry to determine the binding affinity of our analogs to MMCD. […] Because of this secondary site causes problems with biophysical characterization of binding affinity, we used the kcat/Km approximation at low substrate concentrations for the determination of inhibition constants for our analogs. These assays gave Kis of 7.5±1.1 μM for 4, 3.8±1.6 μM for 5, 7.1±1.7 μM for 6, 10.8±2.3 μM for 7, 20.6±2.7 μM for 8 and 19.8±1.4 μM for 9. The sulfonate isosteres bind tighter than the nitro isosteres in general. Our results have been published and incorporated herein by reference in its entirety (Stunkard, L M, et al., J. Am. Chem. Soc. 2019, 141, 5121-5124).
General procedure for MMCD-His6 catalyzed activity assays. The reactions were performed in a 550 μL reaction mixture which contained 50 mM potassium phosphate buffer (KH2PO4/K2HPO4) at pH 6.5 unless otherwise noted, 10 mM MgCl2, methylmalonyl-CoA and the assay was initiated by the addition of MMCD. Reaction mixtures were incubated at 25° C., 65 μL aliquots taken at times noted below were quenched with 25 μL of 50% TFA v/v, precipitating the protein. Centrifugation at 2000 rpm at 25° C. for 10 minutes was used to pellet the protein and the supernatant was analyzed via the procedure outlined below.
General procedure for determination of methylmalonyl-CoA, propionyl-CoA and CoA concentrations in MMCD catalyzed assays. Substrate and product concentrations were determined using HPLC with detection at A254 over the 250×4.6 mm C18(2) column. The analytes were separated with a 2→25% gradient of 0.1% TFA in water→ACN over 20 min. Peak areas of substrate and products were converted to concentration by summing their areas and dividing each peak by this total to give relative percentages that were converted to concentration by adjusting to the starting concentration of methylmalonyl-CoA. This procedure gave essentially the same values as using a standard curve to generate concentrations for each peak, but enhanced reproducibility due to small differences in recovery from the reaction quenching step outlined above.
Inhibition assays of MMCD by 4-9 were performed according to the general procedure above with 200 μM methylmalonyl-CoA, 4-9 (0 μM, 2 μM, 5 μM, 20 μM, and 50 μM) and the assay was initiated by the addition of 1 nM MMCD. Aliquots were taken at the times 20s, 40s, 60s, 150s, 300s, 600s, 900s, and 1800s.
The initial rates (Vi) of decomposition of methylmalonyl-CoA were determined by fitting the progress curve data to equation (1) which describes a simple exponential decay with rate (k), time (t) and initial substrate concentration ([S]t). The rate of formation of propionyl-CoA or CoA could be fit to equation (2). The derivative at time 0 for Equation (1) divided by enzyme concentration gives the initial rates Vi as shown in equation (3). Using this method rather than linear estimation from the early data points gave similar values. However, it allowed more accurate determination of Vi at early time points. [S]=[S]t·e^−k·t Equation (1) [S]=[S]t·(1−e^k·t) Equation (2) Vi=([S]t·k)/[E] Equation (3)
Inhibition of MMCD by 4-9 was determined by fitting initial rate data to equation (6), which describes competitive inhibition and […] describes the Vi in the presence of inhibitor (Lu, J, et al., Protein Eng. Des. Sel. 2017, 30, 395-399). The values of (Vi·Vis)/(Vii−Vis) and Km/kcat were determined from the initial slopes of Vi or Vii versus substrate concentration rather than from the full assay, see Figures S5 and S9. A minimum of two concentrations were used, 20 or 50 μM of each 4-9 and the experiments were repeated at least twice.

T1 sequence (P52045 whole entry): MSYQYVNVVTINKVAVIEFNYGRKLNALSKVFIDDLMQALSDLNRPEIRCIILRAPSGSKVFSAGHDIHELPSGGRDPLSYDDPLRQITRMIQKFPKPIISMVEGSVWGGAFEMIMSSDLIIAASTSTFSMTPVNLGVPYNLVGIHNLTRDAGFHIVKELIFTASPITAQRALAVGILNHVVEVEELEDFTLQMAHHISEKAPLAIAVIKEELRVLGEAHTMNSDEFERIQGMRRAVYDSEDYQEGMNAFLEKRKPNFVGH
Sequence of MMCD (P52045 whole entry): as above

## C[C@@H](C(=O)O)C(=O)SCCNC(=O)CCNC(=O)[C@H](O)C(C)(C)COP(=O)(O)OP(=O)(O)OC[C@H]1O[C@@H](n2cnc3c(N)ncnc32)[C@H](O)[C@@H]1OP(=O)(O)O [(2S)-methylmalonyl-CoA]
MMCD
  Km: 13.6 µM
  kcat: 1.6 s⁻¹

## CC(C(=O)SCCNC(=O)CCNC(=O)C(O)C(C)(C)COP(=O)(O)OP(=O)(O)OCC1OC(n2cnc3c(N)ncnc32)C(O)C1OP(=O)(O)O)S(=O)(=O)O (centres unmarked) [compound 4, 2-sulfonatepropionyl-S-CoA]
[1]
  Ki: 7.5 ± 1.1 µM

## CC(C(=O)OCCNC(=O)CCNC(=O)C(O)C(C)(C)COP(=O)(O)OP(=O)(O)OCC1OC(n2cnc3c(N)ncnc32)C(O)C1OP(=O)(O)O)S(=O)(=O)O (centres unmarked) [compound 5, 2-sulfonatepropionyl-oxa(dethia)CoA]
[1]
  Ki: 3.8 ± 1.6 µM

## CC(C(=O)NCCNC(=O)CCNC(=O)C(O)C(C)(C)COP(=O)(O)OP(=O)(O)OCC1OC(n2cnc3c(N)ncnc32)C(O)C1OP(=O)(O)O)S(=O)(=O)O (centres unmarked) [compound 6, 2-sulfonatepropionyl-amino(dethia)CoA]
[1]
  Ki: 7.1 ± 1.7 µM

## CC(C(=O)SCCNC(=O)CCNC(=O)[C@H](O)C(C)(C)COP(=O)(O)OP(=O)(O)OC[C@H]1O[C@@H](n2cnc3c(N)ncnc32)[C@H](O)[C@@H]1OP(=O)(O)O)[N+](=O)[O-] (some centres unmarked) [compound 7, 2-nitropropionyl-S-CoA]
[1]
  Ki: 10.8 ± 2.3 µM

## CC(C(=O)OCCNC(=O)CCNC(=O)[C@H](O)C(C)(C)COP(=O)(O)OP(=O)(O)OC[C@H]1O[C@@H](n2cnc3c(N)ncnc32)[C@H](O)[C@@H]1OP(=O)(O)O)[N+](=O)[O-] (some centres unmarked) [compound 8, 2-nitropropionyl-oxa(dethia)CoA]
[1]
  Ki: 20.6 ± 2.7 µM

## CC(C(=O)NCCNC(=O)CCNC(=O)[C@H](O)C(C)(C)COP(=O)(O)OP(=O)(O)OC[C@H]1O[C@@H](n2cnc3c(N)ncnc32)[C@H](O)[C@@H]1OP(=O)(O)O)[N+](=O)[O-] (some centres unmarked) [compound 9, 2-nitropropionyl-amino(dethia)CoA]
[1]
  Ki: 19.8 ± 1.4 µM
